What was measured:
[1] = tested on: IRAK1, NF-κB-p65 and gasdermin in MDS MSCs; assay: Western blot of IRAK1, NF-κB-p65 and gasdermin in MDS MSCs treated with S100A9 with or without tasquinimod; assay type: cell-based, human; conditions: S100A9 1.5 μg/ml, tasquinimod 10 μM, 48 h
Description: GAPDH (38 kDa) served as reference protein. Lane 1=untreated control; lane 2=treated with S100A9; lane 3=treated with S100A9/tasquinimod.
(§1) BM mononuclear cells were isolated by percoll gradient centrifugation and MSCs were grown as adherent monolayer in DMEM/10% FCS. Passages 2-5 were used for the experiments.
(§2) To mimic inflammatory conditions, in-vitro cultured MSCs were treated with recombinant S100A8, S100A9 or the S100A8/9 heterodimer (each 1.5 μg/ml) or TNF-α (10 ng/ml) in the presence or absence of tasquinimod (10 μM) for different time periods depending on the subsequent experiments. Hematopoietic stem and progenitor cells (HSPCs) for cocultures were isolated using CD34 antibody-conjugated magnetic beads, according to the manufacturer's instructions (Miltenyi Biotec) and were added in CellGro medium (CellGenix) containing stem cell factor (SCF), FLT3-L and IL-3 (10 ng/ml each).
(§3) Whole cell lysates were prepared using RIPA lysis buffer containing proteinase inhibitors. Protein concentrations were determined using the BCA Protein Assay Kit. Equal protein amounts were separated by SDS-polyacrylamide gel electrophoresis and transferred to polyvinylidene fluoride membranes for detection of specific proteins using primary antibodies for IRAK1, NF-κB-p65, gasdermin and OXPHOS overnight at 4° C., following secondary antibodies HRP-conjugated goat anti-mouse IgG (Invitrogen) or donkey anti-rabbit IgG (GE Healthcare), respectively. The blots were incubated with ECL Plus Western Blotting reagent (Amersham) and the signals captured using a LAS3000 imaging system.

[2] = tested on: IL-1β, IL-18, Casp1 and PD-L1 mRNA in MDS MSCs; assay: RT-PCR mRNA expression of IL-1β, IL-18, caspase 1 and PD-L1 in MDS MSCs treated with S100A9 with or without tasquinimod; assay type: cell-based, human; conditions: 48 h
Description: FIG. 3 is a bar chart representing the mRNA expression levels of IL-1β, IL-18, Casp1 and PD-L1 by real-time PCR of MDS MSCs after 48 h treatment with tasquinimod only (TASQ), with S100A9 only (S100A9), or with both S100A9 and tasquinimod (S100A9+TASQ). Amplicons for IL-1β, IL-18, Casp1 and PD-L1 were normalized to endogenous GAPDH expression and the untreated MSCs were set to 1 (=control).
as §1, §2
(§4) RNA was isolated from MSC using RNeasy Mini Kit (Qiagen) and reverse transcribed into cDNA using RevertAid™ cDNA synthesis kit (Thermo Fisher) with oligo-dT primers. Relative target quantity was determined using the comparative CT (ΔΔCT) method. RT-PCR was performed using SYBR Green/ROX PCR master mix (Thermo) and target specific primers for caspasel, IL1β, IL18, PD-L1, PD-1 and GAPDH as housekeeping gene on a Taqman™ Fast 3500 cycler (Applied Biosystems). Amplicons were normalized to endogenous GAPDH control.

[3] = tested on: PD-L1 in healthy and CMML MSCs; assay: Western blot of PD-L1 in healthy and CMML MSCs; assay type: cell-based, human; conditions: 48 h; for PD-L1 expression in the absence of S100A9: tasquinimod alone
Description: Lane 1=untreated control; lane 2=treated with tasquinimod; lane 3=treated with S100A9; […] tasquinimod.
as §1, §2, §3

αSMA and NF-κB in MSCs = assay: Immunofluorescence staining and confocal microscopy of S100A9/tasquinimod treated MSCs; assay type: cell-based, human
Description: as §2
S100A9/tasquninimod treated MSCs were fixed with 4% paraformaldehyde. Cells were permeabilized using PBS containing 0.1% Triton™ X-100 (T-PBS), blocked with T-PBS containing 10% FCS and 1% HSA (IF-Buffer) and incubated over night at 4° C. with antibodies against αSMA, NFκB or PD-L1. Secondary antibodies polyclonal sheep-anti-rabbit-Cy3 or polyclonal goat-anti-mouse-Cy2 were incubated for 1 h at room temperature. Cell nuclei were counterstained with DAPI. Imaging analysis was performed by confocal microscopy (LSM800, Carl Zeiss) and ZEN software.

MDS MSCs = assay: MSC differentiation assays (adipogenic, osteogenic); assay type: cell-based, human
Description: Adipogenic and osteogenic differentiation capacity is an important functional feature of MSCs and often altered in MDS leading to changes in the bone metabolism. Therefore, the effect of tasquinimod on adipogenic and osteogenic differentiation was assayed as follows.
MSCs were seeded in 6-well plates (5×10^3 MSCs/cm^2), cultured to subconfluency for approximately 4 days in DMEM, and subjected to adipogenic (0.5 mM […], 1 μM dexamethasone, 100 μM indomethacin, 10 μM insulin) or osteogenic (0.1 μM dexamethasone, 0.2 mM ascorbate-2-phosphate, 10 mM β-glycerophosphate) differentiation. […] Differentiation was graded according to microscopic analysis as follows: 0=no differentiation; 1=25% of the culture wells contain differentiated cells; 2=50% of the culture wells contain differentiated cells; 3=75% of the culture wells contain differentiated cells; 4=100% of the culture wells contain differentiated cells. Osteogenesis was determined by van Kossa staining, and the catalytic activity of ALP was determined.

[4] = tested on: IRAK1, NF-κB-p65 and gasdermin in MDS MSCs; assay: Western blot of IRAK1, NF-κB-p65 and gasdermin in MDS MSCs treated with TNF-α with or without tasquinimod; assay type: cell-based, human; conditions: MSC cultures, TNF-α 10 ng/ml, tasquinimod 10 μM, 48 h
Description: GAPDH (38 kDa) served as reference protein. Lane 1=treated with TNF-α; lane 2=treated with TNF-α and tasquinimod.
as §2, §3

[5] = tested on: MDS MSC co-cultured with hematopoietic progenitor cells; assay: CAF-C assay, MSC/HSPC co-culture with pre-treated stromal layers; assay type: cell-based, human; conditions: stromal layers pre-treated with S100A9 and tasquinimod, one to four weeks
Description: FIG. 6a is a bar chart showing quantification of CAF-C when co-culturing MDS MSC with hematopoietic progenitor cells, after one, two, three and four weeks without the presence of either S100A9 or tasquinimod (“without”), in the presence of tasquinimod (TASQ), in the presence of S100A9 (S100A9), and in the presence of both s100A9 and tasquinimod (S100A9+TASQ).
as §2
CAF-C assays were performed over four weeks using pre-treated healthy or MDS MSC layers. One thousand magnetically isolated CD34+ cells were added in StemMACS™ HSC-CFU complete medium (Miltenyi Biotec).

[6] = tested on: MDS MSC co-cultured with hematopoietic progenitor cells; assay: CFU assay with cells harvested after one week of MSC/HSPC co-culture; assay type: cell-based, human; conditions: colonies counted after 2 weeks
Text: FIG. 6b is a bar chart showing the number of colonies/300 cells in CFU assays performed using MDS MSC cells cocultured with hematopoietic progenitor cells, harvested after one week of co-culture in the presence of S100A9 or in the presence of both S100A9 and tasquinimod or in the absence of both S100A9 and tasquinimod (“control”), with 300 cells being plated in enriched methylcellulose medium with recombinant cytokines (MethoCult™ H4435, STEMCELL Technologies). Colonies were counted after 2 weeks and classified under a microscope or with the STEMvision™ system (STEMCELL Technologies). FIG. 6c is a bar chart showing the number of colonies/300 cells in CFU assays performed using MDS MSC cells and hematopoietic progenitor cells, harvested after one week of co-culture in the presence (“TASQ”) or absence (“without”) of tasquinimod, with 300 cells being plated in enriched methylcellulose medium with recombinant cytokines (MethoCult™ H4435, STEMCELL Technologies). Colonies were counted after 2 weeks and classified under a microscope or with the STEMvision™ system (STEMCELL Technologies). […] Colonies were counted after 2 weeks and classified under a microscope or with the STEMvision™ system (STEMCELL Technologies).

PD-1 = PD-1 expression (RT-PCR) in MSC/HSPC co-cultures; assay type: cell-based, human; conditions: summary statement; PD-1 measured in co-cultured HSPCs
Description: as §2
as §4, with “RNA was isolated from MSC using RNeasy Mini Kit (Qiagen) and reverse transcribed into cDNA using RevertAid™ cDNA synthesis kit (Thermo Fisher) with oligo-dT primers.” left out

MSCs [7] = assay: CellROX Deep Red Flow Cytometry Assay of ROS levels; assay type: cell-based, human
Description: The inflammatory micromilieu of the myelodysplastic bone marrow leads to increased ROS levels which may cause aberrant cellular function. Therefore, the effect of tasquinimod on ROS levels in MSCs is assayed using the CellROX™ Deep Red Flow Cytometry Assay kit (Thermo Fisher) according to the manufacturer's instructions.

MSCs [8] = assay: Seahorse Metabolic Extracellular Flux Profiling (Cell Mito Stress Test); assay type: cell-based, human
Description: The impact of tasquinimod on cellular metabolism is investigated by using the Seahorse system (Agilent Technologies). MSCs are seeded in Seahorse 96-well plates. Cell Mito Stress Test (XF Cell Mito Stress Test Kit, Agilent Technologies) is performed following the standard protocol. Oxygen consumption rate (OCR) and Extracellular Acidification Rate (ECAR) are detected after injection of oligomycin ([…]), carbonyl cyanide-p-trifluoromethoxyphenylhydrazone (FCCP, […]), and the combination of rotenone and antimycin (Rot/AA, […]). OCR is measured with an XF96 analyzer and the Wave software (version 2.2.0).

[9] = tested on: genetically modified mice (e.g. B6; 129-Trp53bp^tm1Jc/J and NUP98/HOXD13); assay: In vivo validation in genetically modified mice developing signs of MDS; conditions: MDS mouse models, blood counts weekly, bone marrow after 20 weeks
Description: The promising in vitro results are validated in vivo in different mouse models. In these models, genetically modified mice (e.g. B6; 129-Trp53bp^tm1Jc/J and NUP98/HOXD13) which develop typical signs of MDS such as anemia and cytopenia are treated with tasquinimod. Peripheral blood counts are recorded weekly and finally the bone marrow is analysed after 20 weeks.

PD-L1 = conditions: Oncoimmunology 2016, Vol. 5, No. 6, e1145333; cited from earlier work
[10] = MDS MSCs, S100A9-induced increase, tasquinimod 10 μM
[11] = MSCs, induced by S100A9, tasquinimod 10 μM

mRNA expression of IL-1β [2, 10]: this increase was inhibited
mRNA expression of IL-18 [2, 10]: this increase was inhibited
mRNA expression of caspase 1 [2, 10]: this increase was inhibited
PD-L1 expression at the mRNA level [2, 11]: suppressed
SMILES: COc1cccc2c1c(O)c(C(=O)N(C)c1ccc(C(F)(F)F)cc1)c(=O)n2C [tasquinimod, 4-hydroxy-5-methoxy-N,1-dimethyl-2-oxo-N-[4-(trifluoromethyl)phenyl]-1,2-dihydroquinoline-3-carboxamide]
expression of IRAK1 (Western blot) [1]: inhibited the expression
expression of NF-κB-p65 (Western blot) [1]: inhibited the expression
expression of gasdermin (Western blot) [1]: inhibited the expression
PD-L1 expression in the absence of S100A9 ([3]; MSC from CMML MDS patients): downregulation of PD-L1
PD-L1 expression in the absence of S100A9 ([3]; MSC from healthy volunteers): downregulation of PD-L1
PD-L1 expression at the protein level [3, 11]: suppressed
NF-kB (nuclear) expression in MSCs (αSMA and NF-κB in MSCs): reduces
αSMA expression in MSCs (αSMA and NF-κB in MSCs): reduces
decrease in number of adipocytes (Oil red O positive cells) (MDS MSCs; MDS MSCs, after 14 days of cultivation in differentiation medium): 25-50%
adipogenic differentiation (MDS MSCs; MSC differentiation assay): reducing
osteogenic differentiation (MDS MSCs; MSC differentiation assay): improving
expression of IRAK1 (Western blot) [4]: inhibited the expression
expression of NF-κB-p65 (Western blot) [4]: inhibited the expression
expression of gasdermin (Western blot) [4]: inhibited the expression
number of CAF-Cs [5]: increased
number of CFUs [6]: increased
PD-1 expression (PD-1): inhibition
ROS levels in MSCs (MSCs [7]): block elevated ROS levels
Spare Respiratory Capacity (MSCs [8]): improved
cellular stress (MSCs [8]): reduced cellular stress
restoration of functional hematopoiesis [9]: partly restore functional hematopoiesis
expression of PD-L1, previously reported (PD-L1): upregulate expression of PD-L1

From patent publication US20240091215A1, “TASQUINIMOD OR A PHARMACEUTICALLY ACCEPTABLE SALT THEREOF FOR USE IN THE TREATMENT OF MYELODYSPLASTIC SYNDROME” (ACTIVE BIOTECH AB, priority 2021, published 2024)
